One assay concerns the target μ-opioid receptor (Homo sapiens (Human), UniProt P35372). The assay is described as follows: μ-opioid receptor [35S]GTPγS functional assay, HEK-293 cells (Table 6). The class given is biochemical. Summed up:
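[35S]GTPγS (0.20 nM) binding in HEK-293 membranes expressing recombinant receptor (0.026 mg/mL protein), with GDP (3 mM) and saponin, HEPES buffer pH 7.4, 30 min at about 25° C. Bound radioactivity collected by filtration and counted. Emax (%) expressed relative to DAMGO from sigmoidal dose-response fits.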
(In general: GTPγS is a poorly hydrolysed GTP analogue; its binding reports G protein activation.)

Assay [1] has as its target recombinant human kappa opioid receptor (κ) (Homo sapiens (Human), UniProt P41145). Nature of the assay: κ-opioid receptor radioligand binding assay ([3H]-U69,593). Conditions: binding affinity. As to the method: κ-Opioid Receptor Binding Assay Procedures: Membranes from HEK-293 cells, CHO cells or U-2 OS cells expressing the recombinant human kappa opioid receptor (κ) were prepared by lysing cells in ice cold hypotonic buffer (2.5 mM MgCl2, 50 mM HEPES, pH 7.4) (10 mL/10 cm dish) followed by homogenization with a tissue grinder/Teflon pestle. Membranes from a cell line naturally expressing kappa opioid receptor can also be used. Membranes were collected by centrifugation at 30,000×g for 15 min at 4° C. and pellets were resuspended in hypotonic buffer to a final concentration of 1-3 mg/mL. Protein concentrations were determined using the BioRad protein assay reagent with bovine serum albumen as standard. Aliquots of κ receptor membranes were stored at −80° C.
Radioligand dose displacement assays used 0.4 nM [^3H]-U69,593 (GE Healthcare, Piscataway, N.J.; 40 Ci/mmole) with 15 μg membrane protein (recombinant opioid receptor expressed in HEK 293 cells; in-house prep) in a final volume of 200 μl binding buffer (5% DMSO, 50 mM Trizma base, pH 7.4). Non-specific binding was determined in the presence of 10 μM unlabeled naloxone or U69,593. All reactions were performed in 96-well polypropylene plates for 1 hour at a temperature of about 25° C. Binding reactions were terminated by rapid filtration onto 96-well Unifilter GF/C filter plates (Perkin Elmer, Shelton, Conn.) presoaked in 0.5% polyethylenimine (Sigma). Harvesting was performed using a 96-well tissue harvester (Perkin Elmer, Shelton, Conn.) followed by five filtration washes with 200 μl ice-cold binding buffer. Filter plates were subsequently dried at 50° C. for 1-2 hours. Fifty μl/well scintillation cocktail (Perkin Elmer, Shelton, Conn.) was added and plates were counted in a Packard Top-Count for 1 min/well.

The next assay addresses κ-opioid receptor (Homo sapiens (Human), UniProt P41145). Nature of the assay: κ-opioid receptor [35S]GTPγS functional assay, HEK-293 cells (Table 6). Format: biochemical. The protocol: κ-Opioid Receptor Functional Assay Procedures: Functional [^35S]GTPγS binding assays were conducted as follows. κ opioid receptor membrane solution was prepared by sequentially adding final concentrations of 0.026 μg/μl κ membrane protein (in-house), 10 μg/mL saponin, 3 μM GDP and 0.20 nM [^35S]GTPγS to binding buffer (100 mM NaCl, 10 mM MgCl2, 20 mM HEPES, pH 7.4) on ice. The prepared membrane solution (190 μl/well) was transferred to 96-shallow well polypropylene plates containing 10 μl of 20× concentrated stock solutions of agonist prepared in DMSO. Plates were incubated for 30 min at a temperature of about 25° C. with shaking. Reactions were terminated by rapid filtration onto 96-well Unifilter GF/B filter plates (Perkin Elmer, Shelton, Conn.) using a 96-well tissue harvester (Packard) and followed by three filtration washes with 200 μl ice-cold binding buffer (10 mM NaH2PO4, 10 mM Na2HPO4, pH 7.4). Filter plates were subsequently dried at 50° C. for 2-3 hours. Fifty μl/well scintillation cocktail (Perkin Elmer, Shelton, Conn.) was added and plates were counted in a Packard Top-Count for 1 min/well. […]
The following TABLE 6 provides results on the activity response of certain Compounds of the Invention at the μ- and κ-opioid receptors determined as described above using HEK-293 cells.

For the molecule `CN1CC[C@]23C[C@H](C(=O)NCCc4ccccc4)C[C@@]2(O)[C@H]1Cc1ccc(O)cc13` [Compound 108, (2S,3aS,4R,9bS)-3a,8-dihydroxy-12-methyl-N-phenethyl-1,2,3,3a,4,5-hexahydro-4,9b-(epiminoethano)cyclo-penta[a]naphthalene-2-carboxamide], the Emax on μ-opioid receptor (relative to DAMGO) was determined as 83.3 ± 5.17%; on κ-opioid receptor (relative to U69,593) it was 40.6 ± 3.3%. Also, the EC50 stood at 12.4 ± 2.76 nM on μ-opioid receptor (μ GTP) and 138 ± 35 nM on κ-opioid receptor (κ GTP). Besides, the Ki in assay [1] came to 9.29 ± 2.14 nM.

By Emax is commonly meant the greatest response seen or fitted, relative to the assay's reference. One may read the EC50 as the midpoint of the concentration-response curve. A low value points to an effect from little substance. As a reminder, the Ki is a measure of affinity in units of concentration, obtained from inhibition or displacement.

The values are drawn from patent US9656962B2, “Ring-contracted morphinans and the use thereof” (Purdue Pharma L.P., priority 2013, dated 2017).
